Experimental data reported in PMC11129975, “A first-in-human phase I study of TAS-117, an allosteric AKT inhibitor, in patients with advanced solid tumors” (Cancer Chemotherapy and Pharmacology, 2024).

Assay: Phase I safety: adverse events, adverse drug reactions, DLTs in patients with advanced solid tumors
Format: in vivo, human
From the text: This was a phase I, open-label, non-randomized, dose-escalating first-in-human study to evaluate the safety, pharmacokinetics, antitumor activity, pharmacodynamics, and pharmacogenomics of TAS-117 in patients with advanced solid tumors. The study had three phases: a dose escalation phase (DEP), a regimen modification phase (RMP), and a safety assessment phase (SAP). The treatment cycle on each regimen lasted 21 days. The DEP used an accelerated titration and 3 + 3 design. TAS-117 was administered orally once daily (QD) on an empty stomach (1 h before or 2 h after a meal). Dosing was determined based on a 4-week repeated oral-dose toxicology study in monkeys (data on file, Taiho Pharmaceutical Co., Ltd.); the highest non-severely toxic dose was 1.2 mg/kg/day, which was converted to 3.84 mg/body/day, or 2.4 mg/m^2. Therefore, the starting dose was determined to be ≤ 2.4 mg/m^2. At dose level 1, TAS-117 was administered at 2 mg QD (Day − 2), and the dose was increased to 4 mg QD after 2 days (Day 1). The RMP was conducted according to a 3 + 3 design. During this phase, the dose regimen was changed from QD administration to intermittent dosing of daily TAS-117 with 4 days on/3 days off. TAS-117 was administered on an empty stomach. Dose-limiting toxicities (DLTs) were evaluated in Cycle 1 of the DEP and RMP. […] The RD and regimen for the SAP were determined based on the safety, pharmacokinetics, pharmacodynamics, and antitumor activity profile determined in the DEP and RMP. During the SAP, the safety and preliminary efficacy profiles of TAS-117 were assessed at the RD and recommended regimen. Three cohorts were included in this assessment. Cohort 1 included patients with endometrial cancer with a PIK3CA mutation; cohort 2 included patients with endometrial cancer with an AKT1 mutation, AKT1 amplification, or AKT2 amplification; and cohort 3 included patients with ovarian clear cell carcinoma.
The primary endpoints were the proportion of patients who experienced DLTs in Cycle 1 of the DEP and RMP and the incidence of adverse events (AEs) and adverse drug reactions (ADRs) in the SAP. AEs and ADRs were coded using the Medical Dictionary for Regulatory Activities (MedDRA; version 24.1) and graded according to the National Cancer Institute Common Terminology Criteria for Adverse Events (CTCAE; version 4.03). Secondary endpoints were pharmacokinetic findings, changes in the ratio of phosphorylated PRAS40 (pPRAS40)/total PRAS40 from baseline, efficacy, and pharmacogenomics findings.

## C[C@]1(O)C[C@@](N)(c2ccc(-c3nc4n(c3-c3ccccc3)COc3ccncc3-4)cc2)C1 [TAS-117]
SAP n = 43, All grade
  Adverse drug reactions: AST increased: 6 (14.0) n (%)
  Adverse drug reactions: Any events: 43 (100.0) n (%)
  Adverse drug reactions: Blood AP increased: 5 (11.6) n (%)
  Adverse drug reactions: Decreased appetite: 3 (7.0) n (%)
  Adverse drug reactions: Diarrhea: 5 (11.6) n (%)
  Adverse drug reactions: Dry skin: 7 (16.3) n (%)
  Adverse drug reactions: GGT increased: 5 (11.6) n (%)
  Adverse drug reactions: GI disorders: 29 (67.4) n (%)
  Adverse drug reactions: General disorders and administration site conditions: 20 (46.5) n (%)
  Adverse drug reactions: Hyperglycemia: 23 (53.5) n (%)
  Adverse drug reactions: Investigations: 28 (65.1) n (%)
  Adverse drug reactions: Metabolism and nutrition disorders: 26 (60.5) n (%)
  Adverse drug reactions: Nausea: 12 (27.9) n (%)
  Adverse drug reactions: Neutrophil count decreased: 15 (34.9) n (%)
  Adverse drug reactions: Pruritus: 8 (18.6) n (%)
  Adverse drug reactions: Pyrexia: 12 (27.9) n (%)
  Adverse drug reactions: Rash maculo-papular: 40 (93.0) n (%)
  Adverse drug reactions: Skin and SC tissue disorders: 41 (95.3) n (%)
  Adverse drug reactions: Stomatitis: 26 (60.5) n (%)
  Adverse drug reactions: Vomiting: 4 (9.3) n (%)
  Adverse drug reactions: WBC count decreased: 19 (44.2) n (%)
  Adverse events: ALT increased: 8 (18.6) n (%)
  Adverse events: AST increased: 8 (18.6) n (%)
  Adverse events: Any events: 43 (100.0) n (%)
  Adverse events: Blood AP increased: 5 (11.6) n (%)
  Adverse events: Decreased appetite: 7 (16.3) n (%)
  Adverse events: Diarrhea: 9 (20.9) n (%)
  Adverse events: Dry skin: 10 (23.3) n (%)
  Adverse events: GGT increased: 7 (16.3) n (%)
  Adverse events: GI disorders: 35 (81.4) n (%)
  Adverse events: General disorders and administration site conditions: 25 (58.1) n (%)
  Adverse events: Hyperglycemia: 23 (53.5) n (%)
  Adverse events: Investigations: 29 (67.4) n (%)
  Adverse events: Metabolism and nutrition disorders: 28 (65.1) n (%)
  Adverse events: Nausea: 15 (34.9) n (%)
  Adverse events: Neutrophil count decreased: 15 (34.9) n (%)
  Adverse events: Pruritus: 8 (18.6) n (%)
  Adverse events: Pyrexia: 17 (39.5) n (%)
  Adverse events: Rash maculo-papular: 40 (93.0) n (%)
  Adverse events: Skin and SC tissue disorders: 41 (95.3) n (%)
  Adverse events: Stomatitis: 27 (62.8) n (%)
  Adverse events: Vomiting: 8 (18.6) n (%)
  Adverse events: WBC count decreased: 19 (44.2) n (%)
SAP n = 43, ≥ Grade 3
  Adverse drug reactions: ALT increased: 2 (4.7) n (%)
  Adverse drug reactions: AST increased: 0 (0.0) n (%)
  Adverse drug reactions: Any events: 30 (69.8) n (%)
  Adverse drug reactions: Blood AP increased: 0 (0.0) n (%)
  Adverse drug reactions: Decreased appetite: 0 (0.0) n (%)
  Adverse drug reactions: Diarrhea: 0 (0.0) n (%)
  Adverse drug reactions: Dry skin: 0 (0.0) n (%)
  Adverse drug reactions: GGT increased: 4 (9.3) n (%)
  Adverse drug reactions: GI disorders: 1 (2.3) n (%)
  Adverse drug reactions: General disorders and administration site conditions: 0 (0.0) n (%)
  Adverse drug reactions: Hyperglycemia: 7 (16.3) n (%)
  Adverse drug reactions: Investigations: 16 (37.2) n (%)
  Adverse drug reactions: Metabolism and nutrition disorders: 7 (16.3) n (%)
  Adverse drug reactions: Nausea: 0 (0.0) n (%)
  Adverse drug reactions: Neutrophil count decreased: 9 (20.9) n (%)
  Adverse drug reactions: Pruritus: 0 (0.0) n (%)
  Adverse drug reactions: Pyrexia: 0 (0.0) n (%)
  Adverse drug reactions: Rash maculo-papular: 20 (46.5) n (%)
  Adverse drug reactions: Skin and SC tissue disorders: 21 (48.8) n (%)
  Adverse drug reactions: Stomatitis: 1 (2.3) n (%)
  Adverse drug reactions: Vomiting: 0 (0.0) n (%)
  Adverse drug reactions: WBC count decreased: 5 (11.6) n (%)
  Adverse events: ALT increased: 2 (4.7) n (%)
  Adverse events: AST increased: 0 (0.0) n (%)
  Adverse events: Any events: 34 (79.1) n (%)
  Adverse events: Blood AP increased: 0 (0.0) n (%)
  Adverse events: Decreased appetite: 1 (2.3) n (%)
  Adverse events: Diarrhea: 0 (0.0) n (%)
  Adverse events: Dry skin: 0 (0.0) n (%)
  Adverse events: GGT increased: 6 (14.0) n (%)
  Adverse events: GI disorders: 2 (4.7) n (%)
  Adverse events: General disorders and administration site conditions: 0 (0.0) n (%)
  Adverse events: Hyperglycemia: 7 (16.3) n (%)
  Adverse events: Investigations: 18 (41.9) n (%)
  Adverse events: Metabolism and nutrition disorders: 9 (20.9) n (%)
  Adverse events: Nausea: 0 (0.0) n (%)
  Adverse events: Neutrophil count decreased: 9 (20.9) n (%)
  Adverse events: Pruritus: 0 (0.0) n (%)
  Adverse events: Pyrexia: 0 (0.0) n (%)
  Adverse events: Rash maculo-papular: 20 (46.5) n (%)
  Adverse events: Skin and SC tissue disorders: 21 (48.8) n (%)
  Adverse events: Stomatitis: 1 (2.3) n (%)
  Adverse events: Vomiting: 0 (0.0) n (%)
  Adverse events: WBC count decreased: 5 (11.6) n (%)
SAP, cohort 1
  Death (grade 5 respiratory failure, judged unrelated to TAS-117): One patient
Total N = 65, All grade
  Adverse drug reactions: ALT increased: 7 (10.8) n (%)
  Adverse drug reactions: AST increased: 8 (12.3) n (%)
  Adverse drug reactions: Any events: 64 (98.5) n (%)
